Measurements reported in patent publication US20120157422A1, “MARKER” (UCL BUSINESS PLC, priority 2009, published 2012).

Key:
high risk women = details: versus placebo; cited from earlier work
[1] = test system: women at increased risk of preterm delivery; assay: PREMET subgroup providing saliva samples: metronidazole versus placebo; type: in vivo, human; details: 17 women on metronidazole vs 7 on placebo (36.4 weeks), p=0.73, no significant difference
Description: A group of women at increased risk of preterm delivery participating in a study to assess the potential benefit of metronidazole in the prevention of preterm delivery (The PREMET study') provided saliva specimens from 24 weeks of gestation until 34 weeks or delivery in order to interrogate further the association between the steroid hormone profile and gestational age at delivery.
In the PREMET study 892 women with singleton pregnancies, who had at least one risk factor for preterm delivery, were recruited between 23^+0 and 24^+6 weeks over a four and a half year period.^1 Eligibility included singleton pregnancy with a history of preterm birth or preterm prelabour rupture of the membranes before 37 completed weeks of gestation, previous late miscarriage, uterine anatomical abnormality, cervical surgery prior to the index pregnancy or current cervical cerclage. Women were screened for cervico-vaginal fetal fibronectin (fFN) at 24 and 27 weeks gestation. Those who were fFN positive (≧50 ng/mL) were randomised to receive a one week course of metronidazole or placebo.
Weekly saliva samples, provided from 24 weeks of gestation until 34 weeks or delivery, were analysed for saliva E3 and progesterone by radioimmunoassay as previously described.^3 Briefly, aliquots (100 μL) of saliva were mixed with 50 μL sodium carbonate solution pH 10.5 and extracted with 10 volumes of diethyl ether. […]

[2] = test system: women at increased risk of preterm delivery; details: whole PREMET study, fFN positive women, one week course; cited from earlier work

Row | SMILES | benefit of the intervention (high risk women) | gestational age at delivery [1] | preterm delivery associated with treatment [2]
1 | CCCCCC(=O)O[C@]1(C(C)=O)CC[C@H]2[C@@H]3CCC4=CC(=O)CC[C@]4(C)[C@H]3CC[C@@]21C [17α hydroxyprogesterone caproate] | significant benefit | – | –
2 | Cc1ncc([N+](=O)[O-])n1CCO [metronidazole] | – | 35.6 weeks | small but significant increase
